Test results as given in patent EP4458830A1, “TRICYCLIC COMPOUND, METHOD FOR PREPARING SAME, AND USE THEREOF” (Sichuan Kelun-Biotech Biopharmaceutical Co., Ltd., priority 2021, dated 2023).

Molecular target: T1, human TLR7 (Homo sapiens, UniProt Q9NYK1)
T1 construct: host or cells: HEK-Blue hTLR7 cells (HEK293-derived reporter line; that the line is stably transfected with the human TLR7 gene is own knowledge of the vendor's product)
T1 sequence (Q9NYK1 27-1049): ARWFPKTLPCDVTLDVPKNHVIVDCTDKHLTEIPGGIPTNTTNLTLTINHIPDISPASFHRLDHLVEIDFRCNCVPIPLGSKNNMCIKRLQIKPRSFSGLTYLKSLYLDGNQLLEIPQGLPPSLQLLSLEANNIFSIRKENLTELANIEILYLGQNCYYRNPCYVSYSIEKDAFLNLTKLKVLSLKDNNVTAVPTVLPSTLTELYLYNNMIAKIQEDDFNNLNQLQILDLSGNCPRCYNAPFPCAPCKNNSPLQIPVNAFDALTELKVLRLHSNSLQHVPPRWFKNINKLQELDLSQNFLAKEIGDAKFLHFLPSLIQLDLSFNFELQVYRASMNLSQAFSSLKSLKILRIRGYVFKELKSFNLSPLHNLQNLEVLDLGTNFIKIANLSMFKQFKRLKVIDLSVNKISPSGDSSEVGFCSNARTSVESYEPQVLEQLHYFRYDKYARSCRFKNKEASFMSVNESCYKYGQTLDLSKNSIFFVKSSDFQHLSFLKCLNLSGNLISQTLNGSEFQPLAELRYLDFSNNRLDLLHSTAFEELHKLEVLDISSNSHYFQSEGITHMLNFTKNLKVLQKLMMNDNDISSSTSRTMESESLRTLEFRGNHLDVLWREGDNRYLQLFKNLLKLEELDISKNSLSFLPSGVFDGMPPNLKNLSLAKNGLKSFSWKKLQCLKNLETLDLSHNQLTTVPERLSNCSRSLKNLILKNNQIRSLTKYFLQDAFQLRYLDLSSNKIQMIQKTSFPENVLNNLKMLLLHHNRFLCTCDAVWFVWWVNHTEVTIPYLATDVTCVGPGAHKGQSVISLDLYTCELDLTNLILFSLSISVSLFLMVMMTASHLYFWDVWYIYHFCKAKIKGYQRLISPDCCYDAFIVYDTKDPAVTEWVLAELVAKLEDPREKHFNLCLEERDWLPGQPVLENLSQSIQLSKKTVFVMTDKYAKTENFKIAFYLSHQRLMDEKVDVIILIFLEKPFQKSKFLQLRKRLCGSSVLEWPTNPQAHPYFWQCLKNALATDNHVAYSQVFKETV
Experiment: Agonistic activity of compounds on HEK-Blue hTLR7 cells (QUANTI-Blue reporter, OD620)
Format: cell-based
Conditions: for EC50 / Emax: HEK-Blue hTLR7 cells; for EC50: 20 h incubation; for Emax: OD620 at which the activation effect reached the maximum; for activation effect on human TLR7: summary in words
Experimental: • 1. HEK-Blue hTLR7 cells (Invivogen) were cultured in DMEM medium (Hyclone) containing 10% FBS heat-inactivated fetal bovine serum (Corning). On the day of detection, the cell state was observed under a microscope, the cells were collected and resuspended, and the cell concentration was adjusted after counting, 50 µL per well, the total amount of cells was 2×10^4, and the cells were inoculated in a 96-well plate. • 2. After the cells adhered to the wall overnight, 50 µL of the test compound at different concentrations was added into the well plate, so that the final concentrations were 100 µM, 33.3 µM, 11.11 µM, 3.70 µM, 1.23 µM, 0.41 µM, 0.14 µM, 0.05 µM, 0 µM, and the final concentration of DMSO was 1%. The compound was incubated with the cells in a 37°C, 5% CO2 incubator for 20 h. • 3. After the incubation, observation under microscope was performed to determine the maximum signal well, the states of the cells with the highest and lowest concentrations of the compound, and whether the compound will crystalize at high concentration. 10 µL of cell culture supernatant was taken and transferred to a new 96-well transparent plate, 90 µL of QUANTI-Blue (Invivogen) detection reagent was added to each well, and incubated at 37°C for 3 h, and OD620 was read with a multifunctional microplate reader (BMG LABTECH). • 4. EC50 was calculated by fitting with Graphpad Prism software log(agonist) vs. response - Variable slope, and Emax was the OD620 at which the activation effect of the test compound reached the maximum.

SMILES	EC50	Emax	activation effect on human TLR7
CCCCc1nc2c(N)nc3cc(C)sc3c2n1CC1CCOCC1 [Compound 26, 2-butyl-7-methyl-1-((tetrahydro-2H-pyran-4-yl)methyl)-1H-imidazo[4,5-d]thieno[3,2-b]pyridine-4-amine]	50 nM	1.78 OD620	strong activation effect
CCCCc1nc2c(N)nc3cc(C)sc3c2n1CC1CCN(CCOCCOCCN)CC1 [Compound 15, 1-((1-(2-(2-(2-aminoethoxy)ethoxy)ethyl)piperidin-4-yl)methyl)-2-butyl-7-methyl-1H-imidazo[4,5-d]thieno[3,2-b]pyridine-4-amine]	1420 nM	2.40 OD620	strong activation effect
CCCCc1nc2c(N)nc3cc(C4CCN(C)CC4)sc3c2n1C [Compound 32, 2-butyl-1-methyl-7-(1-methylpiperidin-4-yl)-1H-imidazo[4,5-d] thieno[3,2-b]pyridine-4-amine]	1260 nM	0.91 OD620	strong activation effect
CCCCc1nc2c(N)nc3cc(C4CCN(C)CC4)sc3c2n1CC1CCOCC1 [Compound 34, 2-butyl-7-(1-methylpiperidin-4-yl)-1-((tetrahydro-2H-pyran-4-yl)methyl)-1H-imidazo[4,5-d]thieno[3,2-b]pyridine-4-amine]	83 nM	1.21 OD620	strong activation effect
CCCCc1nc2c(N)nc3cc(C)sc3c2n1CC1CCN(CCOCCOCCOCCOCCOCCOCCOC)CC1 [Compound 16, 1-((1-(2,5,8,11,14,17,20-heptaoxadocosan-22-yl)piperidin-4-yl)methyl)-2-butyl-7-methyl-1H-imidazo[4,5-d]thieno[3,2-b]pyridine-4-amine]	1690 nM	2.18 OD620	strong activation effect
COCCc1nc2c(N)nc3ccsc3c2n1CC1CCN(C)CC1 [Compound 56, 2-(2-methoxyethyl)-1-[(1-methylhexahydropyridin-4-yl)methyl] thieno[3,2-b]imidazo[4,5-d]pyridine-4-amine]	460 nM	1.41 OD620	strong activation effect
COCCc1nc2c(N)nc3ccsc3c2n1CCCCN [Compound 4, 1-(4-aminobutyl)-2-(2-methoxyethyl)-1H-imidazo[4,5-d]thieno[3,2-b]pyridine-4-amine]	2410 nM	1.74 OD620	strong activation effect
COCCc1nc2c(N)nc3ccsc3c2n1CC1CCNCC1 [Compound 55, 1-(hexahydropyridin-4-ylmethyl)-2-(2-methoxyethyl) thieno[3,2-b]imidazo[4,5-d]pyridine-4-amine]	1480 nM	1.44 OD620	strong activation effect
CCCCc1nc2c(N)nc3ccsc3c2n1CC1CCNCC1 [Compound 25, 2-butyl-1-(piperidin-4-ylmethyl)-1H-imidazo[4,5-d]thieno[3,2-b] pyridine-4-amine]	140 nM	2.08 OD620	strong activation effect
CCCCc1nc2c(N)nc3cc(C4=CCN(C)CC4)sc3c2[nH]1 [Compound 8, 2-butyl-7-(1-methyl-1,2,3,6-tetrahydropyridin-4-yl)-1H-imidazo [4,5-d]thieno[3,2-b]pyridine-4-amine]	2500 nM	0.56 OD620	strong activation effect
CCCCc1nc2c(N)nc3cc(C4CCNCC4)sc3c2n1CC1CCN(CCOC)CC1 [Compound 41, 2-butyl-7-(hexahydropyridin-4-yl)-1-{[1-(2-methoxyethyl)hexahydropyridin-4-yl]methyl}thieno[3,2-b]imidazo[4,5-d]pyridine-4-amine]	5050 nM	0.84 OD620	strong activation effect
